The test system of the first test is human platelet-rich plasma (PRP). Description: Convulxin-induced aggregation assay (cuvette light transmittance). Format: cell-based. As to conditions: 125-250 ng/mL Convulxin, read-out: IC50, inhibition of convulxin-induced aggregation of platelet rich plasma. The method, then:
For preparation of human platelet-rich plasma (PRP) for aggregation assays, human venous blood was collected from healthy, drug-free volunteers into 0.38% sodium citrate (0.013 M, pH 7.0 final). PRP was prepared by centrifugation of whole blood at 160×g for 20 minutes at room temperature. The PRP layer was removed, transferred to a new tube, and the platelet count was adjusted, if necessary, to achieve a platelet concentration of ˜3×10^8 platelets/mL using platelet-poor plasma (PPP). PPP was prepared by centrifugation of the remaining blood sample (after removal of PRP) for 20 minutes at 800×g. This preparation of PRP may be subsequently used for aggregation assays in either a 96-well plate or standard cuvette aggregometry.
Inhibition of Convulxin-induced aggregation was determined by cuvette light transmittance aggregation assays. Serial dilutions (1:2) of test compounds were prepared in 30% DMSO in a 96-well V-bottom plate (final DMSO concentration in the cuvette was 0.3%). The test compound (5 μl of serial dilutions in DMSO) was preincubated with PRP for 20 minutes prior to initiation of the aggregation reactions, which were performed in a ChronoLog aggregometer by addition of agonist (125-250 ng/mL Convulxin) to 495 μL of PRP at 37° C. The aggregation reaction was recorded for 4 minutes, and the maximum extent of aggregation was determined by the difference in extent of aggregation at baseline, compared to the maximum aggregation that occurred during the 4 minute period of the assay. Inhibition of aggregation was calculated as the maximum aggregation observed in the presence of inhibitor, compared to that in the absence of inhibitor. IC50s were derived by non-linear regression analysis.
On to `c1cc2c(Nc3ccc4cn[nH]c4c3)nc(Nc3ccc(N4CCNCC4)cc3)nc2[nH]1` [Compound 1-2, N4-(1H-indazol-6-yl)-N2-(4-(piperazin-1-yl)phenyl)-7H-pyrrolo[2,3-d]pyrimidine-2,4-diamine], for which the IC50 (usually the concentration that gives 50% inhibition) was at most 50 µM.
Still for that read-out and setting: to `CC(=O)N1CCN(c2ccc(Nc3nc(Nc4ccc5c(C)n[nH]c5c4)c4cc[nH]c4n3)cc2)CC1` [Compound 2-1, 1-(4-(4-(4-(3-methyl-1H-indazol-6-ylamino)-7H-pyrrolo[2,3-d]pyrimidin-2-ylamino)phenyl)piperazin-1-yl)ethanone] belongs at most 50 µM.
On the same count and under the same terms, to `Cc1n[nH]c2cc(Nc3nc(Nc4ccc(N5CCNCC5)cc4)nc4[nH]ccc34)ccc12` [Compound 2-2, N4-(3-methyl-1H-indazol-6-yl)-N2-(4-(piperazin-1-yl)phenyl)-7H-pyrrolo[2,3-d]pyrimidine-2,4-diamine] belongs at most 50 µM; to `CC(=O)N(C)c1ccc(Nc2nc(Nc3ccc4cn[nH]c4c3)c3cc[nH]c3n2)cc1` [Compound 6-1, N-(4-(4-(1H-indazol-6-ylamino)-7H-pyrrolo[2,3-d]pyrimidin-2-ylamino)phenyl)-N-methylacetamide], at most 50 µM; to `OC1CCN(c2ccc(Nc3nc(Nc4ccc5cn[nH]c5c4)c4cc[nH]c4n3)cc2)CC1` [Compound 7-1, 1-(4-(4-(1H-indazol-6-ylamino)-7H-pyrrolo[2,3-d]pyrimidin-2-ylamino)phenyl)piperidin-4-ol], at most 50 µM.
Still for that read-out and setting: to `CS(=O)(=O)N1CCN(c2ccc(Nc3nc(Nc4ccc5cn[nH]c5c4)c4cc[nH]c4n3)cc2)CC1` [Compound 8-1, N4-(1H-indazol-6-yl)-N2-(4-(4-(methylsulfonyl)piperazin-1-yl)phenyl)-7H-pyrrolo[2,3-d]pyrimidine-2,4-diamine] belongs at most 50 µM; to `CS(=O)(=O)N1CCN(c2ccc(Nc3nc(Nc4ccc5cnn(S(C)(=O)=O)c5c4)c4cc[nH]c4n3)cc2)CC1` [Compound 8-2, N4-(1-(methylsulfonyl)-1H-indazol-6-yl)-N2-(4-(4-(methylsulfonyl)piperazin-1-yl)phenyl)-7H-pyrrolo[2,3-d]pyrimidine-2,4-diamine], at most 50 µM; to `CSc1ccc(Nc2nc(Nc3ccc4cn[nH]c4c3)c3cc[nH]c3n2)cc1` [Compound 10-1, N4-(1H-indazol-6-yl)-N2-(4-(methylthio)phenyl)-7H-pyrrolo[2,3-d]pyrimidine-2,4-diamine], at most 50 µM.
Consider `C[S+]([O-])c1ccc(Nc2nc(Nc3ccc4cn[nH]c4c3)c3cc[nH]c3n2)cc1` (stereo not shown) [Compound 10-2, N4-(1H-indazol-6-yl)-N2-(4-(methylsulfinyl)phenyl)-7H-pyrrolo[2,3-d]pyrimidine-2,4-diamine], for which the IC50 was at most 50 µM.
On the same count and under the same terms, the value for `NS(=O)(=O)c1ccc(Nc2nc(Nc3ccc4cn[nH]c4c3)c3cc[nH]c3n2)cc1` [Compound 11-1, 4-(4-(1H-indazol-6-ylamino)-7H-pyrrolo[2,3-d]pyrimidin-2-ylamino)benzenesulfonamide] was at most 50 µM.
Same read-out and setting: the value for `NC(=O)c1ccc(Nc2nc(Nc3ccc4cn[nH]c4c3)c3cc[nH]c3n2)cc1` [Compound 12-1, 4-(4-(1H-indazol-6-ylamino)-7H-pyrrolo[2,3-d]pyrimidin-2-ylamino)benzamide] was at most 50 µM; that for `CN1CCN(c2ccc(Nc3nc(Nc4ccc5cn[nH]c5c4)c4cc[nH]c4n3)cc2)CC1` [Compound 13-1, N4-(1H-indazol-6-yl)-N2-(4-(4-methylpiperazin-1-yl)phenyl)-7H-pyrrolo[2,3-d]pyrimidine-2,4-diamine] was at most 50 µM; that for `CC(=O)N1CCN(c2ccc(Nc3nc(Nc4ccc5[nH]ncc5c4)c4cc[nH]c4n3)cc2)CC1` [Compound 14-1, 1-(4-(4-(4-(1H-indazol-5-ylamino)-7H-pyrrolo[2,3-d]pyrimidin-2-ylamino)phenyl)piperazin-1-yl)ethanone] was at most 50 µM.
Still for that read-out and setting: the value for `CC(=O)N1CCN(c2ccc(Nc3nc(Nc4ccc5cn[nH]c5c4)c4c(C)c[nH]c4n3)cc2)CC1` [Compound 15-1, 1-(4-(4-(4-(1H-indazol-6-ylamino)-5-methyl-7H-pyrrolo[2,3-d]pyrimidin-2-ylamino)phenyl)piperazin-1-yl)ethanone] was at most 50 µM.
For the compound `CC(=O)N(C)c1ccc(Nc2nc(Nc3ccc4nc[nH]c4c3)c3cc[nH]c3n2)cc1` [Compound 17-1, N-(4-(4-(1H-benzo[D]imidazol-6-ylamino)-7H-pyrrolo[2,3-d]pyrimidin-2-ylamino)phenyl)-N-methylacetamide], the IC50 was at most 50 µM.
The same measure, in the same setting: the value for `CN(C)C(=O)C1CCN(c2ccc(Nc3nc(Nc4ccc5nc[nH]c5c4)c4cc[nH]c4n3)cc2)CC1` [Compound 18-1, 1-(4-(4-(1H-benzo[d]imidazol-6-ylamino)-7H-pyrrolo[2,3-d]pyrimidin-2-ylamino)phenyl)-N,N-dimethylpiperidine-4-carboxamide] was at most 50 µM; that for `c1cc2c(Nc3ccc4scnc4c3)nc(Nc3ccc4cn[nH]c4c3)nc2[nH]1` [Compound 19-1, N4-(benzo[d]thiazol-5-yl)-N2-(1H-indazol-6-yl)-7H-pyrrolo[2,3-d]pyrimidine-2,4-diamine] was at most 50 µM.
Same read-out and setting: to `c1cc2c(Nc3ccc4ncsc4c3)nc(Nc3ccc4cn[nH]c4c3)nc2[nH]1` [Compound 20-1, N4-(benzo[d]thiazol-6-yl)-N2-(1H-indazol-6-yl)-7H-pyrrolo[2,3-d]pyrimidine-2,4-diamine] belongs at most 50 µM; to `Cn1ncc2ccc(Nc3nc(Nc4ccc(N5CCNCC5)cc4)nc4[nH]ccc34)cc21` [Compound 22-1, N4-(1-methyl-1H-indazol-6-yl)-N2-(4-(piperazin-1-yl)phenyl)-7H-pyrrolo[2,3-d]pyrimidine-2,4-diamine], at most 50 µM; to `CC(=O)N1CCN(c2ccc(Nc3nc(Nc4ccc5cnn(C)c5c4)c4cc[nH]c4n3)cc2)CC1` [Compound 22-2, 1-(4-(4-(4-(1-methyl-1H-indazol-6-ylamino)-7H-pyrrolo[2,3-d]pyrimidin-2-ylamino)phenyl)piperazin-1-yl)ethanone], at most 50 µM.
Still for that read-out and setting: the value for `Cn1ncc2cc(Nc3nc(Nc4ccc(C(N)=O)cc4)nc4[nH]ccc34)ccc21` [Compound 25-1, 4-(4-(1-methyl-1H-indazol-5-ylamino)-7H-pyrrolo[2,3-d]pyrimidin-2-ylamino)benzamide] was at most 50 µM.

The test system of a further test is human washed platelets. Kind of test: Inhibition of Convulxin-mediated platelet calcium mobilization in vitro. In kind it is cell-based. The following applies: 125 ng/mL Convulxin. How it is done: Inhibition of Convulxin-induced calcium mobilization was determined in human washed platelets using the FLIPR Calcium 3 Assay Kit (Molecular Devices, Sunnyvale, Calif.). For preparation of washed platelets, human venous blood was collected from healthy, drug-free volunteers into ACD (85 mM sodium citrate, 111 mM glucose, 71.4 mM citric acid) containing PGI2 (1.25 mL ACD containing 0.2 μM PGI2 final; PGI2 from Sigma, St. Louis, Mo.). Platelet-rich plasma (PRP) was prepared by centrifugation at 160×g for 20 minutes at room temperature. Washed platelets were prepared by centrifuging PRP for 10 minutes at 730×g and resuspending the platelet pellet in CGS (13 mM sodium citrate, 30 mM glucose, 120 mM NaCl; 2 mL CGS/10 mL original blood volume). The wash in CGS was repeated a second time, the platelets were collected by centrifugation at 730 g for 10 minutes and resuspended at a concentration of 3×10^8 platelets/mL in Hepes-Tyrode's buffer (10 mM Hepes, 138 mM NaCl, 5.5 mM glucose, 2.9 mM KCl, 12 mM NaHCO3, pH 7.4). This platelet suspension was allowed to rest for 45 minutes at room temperature before use in calcium mobilization assays.
For 96-well plate calcium-mobilization experiments, equal volumes of 3×10^8 washed platelets/mL were incubated with equal volumes of Calcium-3 Assay Reagent A resuspended in 1× Hank's Balanced Salt Solution, pH 7.4, 20 mM Hepes buffer. The total reaction volume of 0.2 mL/well included 1.5×10^8/mL washed platelet/Calcium-3 Assay reagent A mix, 10 μM Eptifibatide (Millennium Pharmaceuticals Inc, Cambridge, Mass.) and serial dilutions (1:3) of test compounds in 0.75% DMSO. DMSO alone was added to 1 well of each 8 set to allow for a maximal calcium-mobilization reading. After a 20 minute preincubation at room temperature, the 96-well microplate reader was loaded into the FlexStation (Molecular Devices, Sunnyvale, Calif.). The FlexStation experimental conditions for measuring calcium mobilization were set up using SOFTMax Pro. The settings used were as follows: Fluorescence parameters-assay mode: flex, excitation 485 nm, 525 nM with a cut-off of 515 nM; Parameters—PMT sensitivity-6, pipette height 230 μl, read time 2 minutes and 40 seconds, read intervals 2 seconds, temperature-23-25° C. After 18 seconds of baseline reading, calcium mobilization was initiated by the addition of Convulxin to a final concentration of 125 ng/mL. Inhibition of calcium mobilization was calculated as the maximum response observed in the presence of inhibitor, compared to that in the absence of inhibitor. IC50s were then derived by non-linear regression analysis.
On the technique in general: Calcium assays in cells follow changes in intracellular calcium, usually with a dye or a luminescent sensor.
In the case of `c1cc2c(Nc3ccc4cn[nH]c4c3)nc(Nc3ccc(N4CCNCC4)cc3)nc2[nH]1` [Compound 1-2, N4-(1H-indazol-6-yl)-N2-(4-(piperazin-1-yl)phenyl)-7H-pyrrolo[2,3-d]pyrimidine-2,4-diamine], the half-inhibitory concentration (IC50) is under 1 µM.
On the same count and under the same terms, the value for `Cc1n[nH]c2cc(Nc3nc(Nc4ccc(N5CCNCC5)cc4)nc4[nH]ccc34)ccc12` [Compound 2-2, N4-(3-methyl-1H-indazol-6-yl)-N2-(4-(piperazin-1-yl)phenyl)-7H-pyrrolo[2,3-d]pyrimidine-2,4-diamine] was under 1 µM.
On the same count and under the same terms, the value for `CC1(C)Oc2ccc(Nc3nc(Nc4ccc5c(c4)NC(=O)C(C)(C)O5)c4cc[nH]c4n3)cc2NC1=O` [Compound 3-1] was under 1 µM.
Same read-out and setting: the value for `c1cc2c(Nc3ccc4cn[nH]c4c3)nc(Nc3ccc4cn[nH]c4c3)nc2[nH]1` [Compound 4-1, N2,N4-di(1H-indazol-6-yl)-7H-pyrrolo[2,3-d]pyrimidine-2,4-diamine] was under 1 µM.
As for `CS(=O)(=O)N1CCN(c2ccc(Nc3nc(Nc4ccc5cn[nH]c5c4)c4cc[nH]c4n3)cc2)CC1` [Compound 8-1, N4-(1H-indazol-6-yl)-N2-(4-(4-(methylsulfonyl)piperazin-1-yl)phenyl)-7H-pyrrolo[2,3-d]pyrimidine-2,4-diamine], the IC50 is under 1 µM.
Same read-out and setting: to `CS(=O)(=O)N1CCN(c2ccc(Nc3nc(Nc4ccc5cnn(S(C)(=O)=O)c5c4)c4cc[nH]c4n3)cc2)CC1` [Compound 8-2, N4-(1-(methylsulfonyl)-1H-indazol-6-yl)-N2-(4-(4-(methylsulfonyl)piperazin-1-yl)phenyl)-7H-pyrrolo[2,3-d]pyrimidine-2,4-diamine] belongs under 1 µM.
For `CC1(C)Oc2ccc(Nc3nc(Nc4ccc5cn[nH]c5c4)nc4[nH]ccc34)cc2NC1=O` [Compound 16-1, 6-(2-(1H-indazol-6-ylamino)-7H-pyrrolo[2,3-d]pyrimidin-4-ylamino)-2,2-dimethyl-2H-benzo[b][1,4]oxazin-3(4H)-one], the IC50 is under 1 µM.
